Assay results published in patent publication EP1013272A1, “Manipulation of the activity of a nitric oxide radical production pathway for the treatment of diseases associated with the presence of oxygen free radicals” (Biomedical Primate Research Centre (BPRC), priority 1998, dated 2000).

Legend:
rat spleen cell cultures = assay: In vivo exposure to HgCl2, then ELISPOT of Con A-stimulated spleen cell cultures; settings: for reduction in the ratio of IFN-γ pc/IL-4 pc: day 3 after first HgCl2 injection
Description: (§1) Female BN and Lewis rats at 8 to 12 weeks of age were used in all experiments. Animals were obtained from Harlan CPB (Zeist, The Netherlands) and housed in the animal care facility of our institute and maintained on standard laboratory chow and water ad libitum. For some experiments, rats were injected twice with 1 mg HgCl2/kg body weight by the intraperitoneal route with an interval of 48 h. Four repeated i.p. injections with this dose of HgCl2 at 48 h intervals induce a TH2-biased autoimmune syndrome in BN but not Lewis rats that becomes clinically evident (massive proteinuria) approximately 13 days after the first injection with HgCl2 (16).
The aseptically removed spleen was gently crushed with the blunt end of a 5-ml syringe plunger and passaged through a fine mesh nylon screen. Erythrocytes were hemolysed by adding cold sterile water for 20 sec. to cell pellets followed by the addition of half the volume of 2.7% saline. The number of cells was determined by use of Türk's solution and cell viability by means of trypan blue exclusion. Cell suspensions in which the viability was less than 85% were excluded from the studies. Splenocytes were washed twice with CM5, adjusted to 4 x 10^6 cells/ml, transferred to a 24-well culture plate (1.0 ml/well) and stimulated with Con A (5 µg/ml) in the presence or absence of various supplements (as indicated in the text) for 40 h at 37°C in a humidified atmosphere containing 5% CO2. Thereafter, non-adherent cells were collected and subjected to ELISPOT analyses as described below.
The ELISPOT assay for detecting single cytokine secreting cells has been detailed previously (17). Briefly, the wells of PVC microplates were coated with monoclonal antibodies specific for rat IFN-γ or rat IL-4. After washing and postcoating, 100 µl suspensions of Con A-activated splenocytes were pipetted into the wells. The cells were allowed the produce cytokines for either 4 h (IFN-γ pc) or 16 h (IL-4 pc). Thereafter, cells were lysed for 10 minutes with ice-cold distilled water. Subsequently, the wells were thoroughly washed with PBS containing 0.05% Tween-20. Spots were detected by the sequential incubation of biotinylated rabbit anti-cytokine antibodies and goat anti-biotin antibodies conjugated to alkaline phosphatase (AP). The AP substrate 5-bromo-4-chloro-3-indolyl phosphate was used to produce blue zones ('spots') that visualised the positions of the individual spot-forming cells (SFC). SFC were enumerated by image analysis using a stereo microscope coupled to a colour video camera and Micro Image software from Olympus Optical Co. The frequency of spontaneously occurring SFC was always less than 1% of the mitogen-induced frequency.
Spleens were isolated from rats at 24 h after the second intraperitoneal injection with saline or HgCl2 (1 mg/kg b.w.). Spleen cells were stimulated with Con A (5 µg/ml) in the presence of 2 mM GSH. The experiments were performed at three independent occasions with similar results. At each occasion the ELISPOT analyses were performed in quadruplicate. One representative experiment is presented. Both reduction of IFN-γ pc and enhancement of IL-4 pc (BN splenocytes only) as a result of in vivo exposure to HgCl2 reached in all analyses statistical significance (p < 0.01).

splenocytes = assay: Superoxide anion release by splenocytes after in vivo HgCl2; design: species or system rat
Description: as §1
The pMØ monolayers were incubated for 20 h at 37°C in CM10 and subsequently washed (twice) with Hanks' balanced salt solution (HBSS) without phenol red. Thereafter, the cells were treated with PMA and assayed for ^·O2^- production by measuring the rate of SOD-inhibitable ferricytochrome C reduction (20, 21). To that purpose the macrophage monolayer was incubated for 1 h at 37°C with an 1.0 ml reaction mixture containing 100 µM ferricytochrome C in HBSS with or without PMA (100 ng/ml). […] Each test was run in duplicate and the absorption increase at 550 nm was measured using a Beckmann DU-5 spectrophotometer. ^·O2^- release by splenocytes was determined after Con A activation of 4 x 10^6 cells for 20 h. […]

[1] = BN, HgCl2 in vivo, no culture supplement, Con A + 2 mM GSH (Table 4)
[2] = BN, HgCl2 in vivo, no culture supplement, Con A + 2 mM GSH (Table 6)
[3] = BN, HgCl2 1 mg/kg b.w. i.p. twice, spleens 24 h after second injection, Con A 5 µg/ml + 2 mM GSH
[4] = Lewis, HgCl2 in vivo, no culture supplement, Con A + 2 mM GSH (Table 4)
[5] = Lewis, HgCl2 in vivo, no culture supplement, Con A + 2 mM GSH (Table 6)
[6] = Lewis, HgCl2 1 mg/kg b.w. i.p. twice, spleens 24 h after second injection, Con A 5 µg/ml + 2 mM GSH

[Cl][Hg][Cl] [HgCl2, mercuric chloride]
reduction in the ratio of IFN-γ pc/IL-4 pc (rat spleen cell cultures; BN splenocyte cultures): ~6 fold | IFN-γ pc per 1x10^4 MNC (rat spleen cell cultures; [1]): 30 ± 8 per 1 x 10^4 MNC | IL-4 pc per 2x10^5 MNC (rat spleen cell cultures; [1]): 88 ± 14 per 2 x 10^5 MNC | ratio IFN-γ pc/IL-4 pc (rat spleen cell cultures; [1]): 6.8 | IFN-γ pc per 1x10^4 MNC (rat spleen cell cultures; [2]): 35 ± 8 per 1x10^4 MNC | IL-4 pc per 2x10^5 MNC (rat spleen cell cultures; [2]): 87 ± 14 per 2x10^5 MNC | ratio pc IFN-γ/IL-4 (rat spleen cell cultures; [2]): 8 | IFN-γ pc per 1x10^4 MNC (rat spleen cell cultures; [3]): 34 ± 8 per 1 x 10^4 MNC | IL-4 pc per 2x10^5 MNC (rat spleen cell cultures; [3]): 101 ± 12 per 2 x 10^5 MNC | ratio IFN-γ pc/IL-4 pc (rat spleen cell cultures; [3]): 6.7 | reduction in the ratio of IFN-γ pc/IL-4 pc (rat spleen cell cultures; Lewis splenocyte cultures): ~2 fold | IFN-γ pc per 1x10^4 MNC (rat spleen cell cultures; [4]): 104 ± 1 per 1 x 10^4 MNC | IL-4 pc per 2x10^5 MNC (rat spleen cell cultures; [4]): 11 ± 3 per 2 x 10^5 MNC | ratio IFN-γ pc/IL-4 pc (rat spleen cell cultures; [4]): 189 | IFN-γ pc per 1x10^4 MNC (rat spleen cell cultures; [5]): 104 ± 11 per 1x10^4 MNC | IL-4 pc per 2x10^5 MNC (rat spleen cell cultures; [5]): 13 ± 3 per 2x10^5 MNC | ratio pc IFN-γ/IL-4 (rat spleen cell cultures; [5]): 160 | IFN-γ pc per 1x10^4 MNC (rat spleen cell cultures; [6]): 103 ± 9 per 1 x 10^4 MNC | IL-4 pc per 2x10^5 MNC (rat spleen cell cultures; [6]): 12 ± 7 per 2 x 10^5 MNC | ratio IFN-γ pc/IL-4 pc (rat spleen cell cultures; [6]): 172 | ^·O2^- levels (splenocytes): below the detection limit
